Target: TYK2 (Homo sapiens, UniProt P29597)
Assay: TYK2 protein degradation in NOMO-1 cells by immunoblotting
Type: cell-based
Parameters: endogenous in cells
Conditions: NOMO-1 cells
Experimental: NOMO-1 cells were treated with CPD-155, CPD-157, and CPD-158 at 0.1, 1, 10, 100 and 1000 nM concentrations for 16 hours. […] Data shown that CPD-155, CPD-157, and CPD-158 are very potent at the reduction protein levels of TYK2.
MOLT-4 or NOMO-1 cells were cultured at 37° C. with 5% CO2 in RPMI 1640 Medium supplemented with 10% fetal bovine serum. Cells were authenticated using the short tandem repeat (STR) assays. Mycoplasma test results were negative.
Cultured cells were washed with cold PBS once and lysed in cold RIPA buffer supplemented with protease inhibitors and phosphatase inhibitors (Beyotime Biotechnology). The solutions were then incubated at 4° C. for 30 minutes with gentle agitation to fully lyse cells. Cell lysates were centrifuged at 13,000 rpm for 10 minutes at 4° C. and pellets were discarded. Total protein concentrations in the lysates were determined by BCA assays (Beyotime Biotechnology). Cell lysates were mixed with Laemmli loading buffer to 1× and heated at 99° C. for 5 min. Proteins were resolved on SDS-PAGE and visualized by chemiluminescence. Images were taken by a ChemiDoc MP Imaging system (Bio-Rad). Protein bands were quantitated using the accompanied software provided by Bio-Rad.

Sequence of TYK2 (P29597 whole entry): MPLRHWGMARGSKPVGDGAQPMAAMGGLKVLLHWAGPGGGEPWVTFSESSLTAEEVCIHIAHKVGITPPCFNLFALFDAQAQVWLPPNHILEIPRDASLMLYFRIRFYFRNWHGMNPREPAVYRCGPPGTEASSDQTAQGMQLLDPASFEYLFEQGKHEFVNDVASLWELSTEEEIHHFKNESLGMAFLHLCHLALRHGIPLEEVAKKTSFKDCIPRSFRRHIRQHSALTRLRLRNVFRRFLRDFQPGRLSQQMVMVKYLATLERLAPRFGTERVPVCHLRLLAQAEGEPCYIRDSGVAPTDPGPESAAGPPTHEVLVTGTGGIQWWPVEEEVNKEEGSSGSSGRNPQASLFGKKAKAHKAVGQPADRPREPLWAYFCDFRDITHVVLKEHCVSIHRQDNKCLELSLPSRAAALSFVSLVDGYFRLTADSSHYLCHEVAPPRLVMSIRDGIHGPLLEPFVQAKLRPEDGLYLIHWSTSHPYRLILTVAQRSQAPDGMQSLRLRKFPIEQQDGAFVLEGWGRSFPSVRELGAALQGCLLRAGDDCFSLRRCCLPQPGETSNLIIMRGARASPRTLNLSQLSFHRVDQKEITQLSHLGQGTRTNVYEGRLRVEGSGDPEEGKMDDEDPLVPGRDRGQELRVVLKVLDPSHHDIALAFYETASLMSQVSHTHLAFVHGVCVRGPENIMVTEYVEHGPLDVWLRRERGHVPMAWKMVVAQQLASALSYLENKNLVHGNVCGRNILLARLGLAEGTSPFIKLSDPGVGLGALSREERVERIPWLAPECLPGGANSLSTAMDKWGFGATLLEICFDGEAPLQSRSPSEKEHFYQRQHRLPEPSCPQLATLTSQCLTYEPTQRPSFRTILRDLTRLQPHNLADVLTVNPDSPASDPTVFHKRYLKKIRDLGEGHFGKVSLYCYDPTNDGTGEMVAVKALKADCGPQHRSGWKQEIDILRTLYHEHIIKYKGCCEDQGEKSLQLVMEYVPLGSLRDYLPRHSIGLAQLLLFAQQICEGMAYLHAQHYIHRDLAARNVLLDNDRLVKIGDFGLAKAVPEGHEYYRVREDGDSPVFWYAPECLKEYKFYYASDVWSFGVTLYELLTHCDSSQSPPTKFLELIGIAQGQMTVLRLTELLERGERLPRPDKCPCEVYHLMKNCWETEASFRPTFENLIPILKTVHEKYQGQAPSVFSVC

| SMILES | TYK2 Degradation (NOMO-1, 10 nM) | TYK2 Degradation (NOMO-1, 100 nM) |
| --- | --- | --- |
| CNC(=O)c1nnc(Nc2ccc(C#CC3CN(C(=O)CCCCCCCCC(=O)N[C@H](C(=O)N4C[C@H](O)C[C@H]4C(=O)N[C@@H](C)c4ccc(-c5scnc5C)cc4)C(C)(C)C)C3)cn2)cc1Nc1cccc(-c2ncn(C)n2)c1OC [CPD-127, 6-((5-((1-(10-(((S)-1-((2S,4R)-4-hydroxy-2-(((S)-1-(4-(4-methylthiazol-5-yl)phenyl)ethyl)carbamoyl)pyrrolidin-1-yl)-3,3-dimethyl-1-oxobutan-2-yl)amino)-10-oxodecanoyl)azetidin-3-yl)ethynyl)pyridin-2-yl)amino)-4-((2-methoxy-3-(1-methyl-1H-1,2,4-triazol-3-yl)phenyl)amino)-N-methylpyridazine-3-carboxamide] | A (A: ≥60% TYK2 degradation) | A (A: ≥60% TYK2 degradation) |
| CNC(=O)c1nnc(Nc2ccc(C#CC3CCN(C(=O)CCCCCCCC(=O)N[C@H](C(=O)N4C[C@H](O)C[C@H]4C(=O)N[C@@H](C)c4ccc(-c5scnc5C)cc4)C(C)(C)C)CC3)cn2)cc1Nc1cccc(-c2ncn(C)n2)c1OC [CPD-120, 6-((5-((1-(9-(((S)-1-((2S,4R)-4-Hydroxy-2-(((S)-1-(4-(4-methylthiazol-5-yl)phenyl)ethyl)carbamoyl)pyrrolidin-1-yl)-3,3-dimethyl-1-oxobutan-2-yl)amino)-9-oxononanoyl)piperidin-4-yl)ethynyl)pyridin-2-yl)amino)-4-((2-methoxy-3-(1-methyl-1H-1,2,4-triazol-3-yl)phenyl)amino)-N-methylpyridazine-3-carboxamide] |  | A (A: ≥60% TYK2 degradation) |
| CNC(=O)c1nnc(Nc2ccc(C(=O)NCCCCC(=O)N[C@H](C(=O)N3C[C@H](O)C[C@H]3C(=O)N[C@@H](C)c3ccc(-c4scnc4C)cc3)C(C)(C)C)cn2)cc1Nc1cccc(-c2ncn(C)n2)c1OC [CPD-140, 6-((5-((5-(((S)-1-((2S,4R)-4-Hydroxy-2-(((S)-1-(4-(4-methylthiazol-5-yl)phenyl)ethyl)carbamoyl)pyrrolidin-1-yl)-3,3-dimethyl-1-oxobutan-2-yl)amino)-5-oxopentyl)carbamoyl)pyridin-2-yl)amino)-4-((2-methoxy-3-(1-methyl-1H-1,2,4-triazol-3-yl)phenyl)amino)-N-methylpyridazine-3-carboxamide] | C (C: ≤20% TYK2 degradation) | A (A: ≥60% TYK2 degradation) |
| CNC(=O)c1nnc(Nc2ccc(C(=O)NCCCCCCC(=O)N[C@H](C(=O)N3C[C@H](O)C[C@H]3C(=O)N[C@@H](C)c3ccc(-c4scnc4C)cc3)C(C)(C)C)cn2)cc1Nc1cccc(-c2ncn(C)n2)c1OC [CPD-142, 6-((5-((7-(((S)-1-((2S,4R)-4-Hydroxy-2-(((S)-1-(4-(4-methylthiazol-5-yl)phenyl)ethyl)carbamoyl)pyrrolidin-1-yl)-3,3-dimethyl-1-oxobutan-2-yl)amino)-7-oxoheptyl)carbamoyl)pyridin-2-yl)amino)-4-((2-methoxy-3-(1-methyl-1H-1,2,4-triazol-3-yl)phenyl)amino)-N-methylpridazine-3-carboxamide] | B (B: <60% TYK2 degradation, and >20% TYK2 degradation) | A (A: ≥60% TYK2 degradation) |
| CNC(=O)c1nnc(Nc2ccc(C(=O)NCCC(=O)N[C@H](C(=O)N3C[C@H](O)C[C@H]3C(=O)N[C@@H](C)c3ccc(-c4scnc4C)cc3)C(C)(C)C)cn2)cc1Nc1cccc(-c2ncn(C)n2)c1OC [CPD-138, 6-((5-((3-(((S)-1-((2S,4R)-4-Hydroxy-2-(((S)-1-(4-(4-methylthiazol-5-yl)phenyl)ethyl)carbamoyl)pyrrolidin-1-yl)-3,3-dimethyl-1-oxobutan-2-yl)amino)-3-oxopropyl)carbamoyl)pyridin-2-yl)amino)-4-((2-methoxy-3-(1-methyl-1H-1,2,4-triazol-3-yl)phenyl)amino)-N-methylpyridazine-3-carboxamide] |  | C (C: ≤20% TYK2 degradation) |

The remaining lines, values ahead:

| TYK2 Degradation (NOMO-1, 10 nM) | TYK2 Degradation (NOMO-1, 100 nM) | SMILES |
| --- | --- | --- |
| A (A: ≥60% TYK2 degradation) | A (A: ≥60% TYK2 degradation) | CNC(=O)c1nnc(Nc2ccc(N3CCN(C(=O)CCCCCCCC(=O)N[C@H](C(=O)N4C[C@H](O)C[C@H]4C(=O)N[C@@H](C)c4ccc(-c5scnc5C)cc4)C(C)(C)C)CC3)cn2)cc1Nc1cccc(-c2ncn(C)n2)c1OC [CPD-115, 6-((5-(4-(9-(((S)-1-((2S,4R)-4-hydroxy-2-(((S)-1-(4-(4-methylthiazol-5-yl)phenyl)ethyl)carbamoyl)pyrrolidin-1-yl)-3,3-dimethyl-1-oxobutan-2-yl)amino)-9-oxononanoyl)piperazin-1-yl)pyridin-2-yl)amino)-4-((2-methoxy-3-(1-methyl-1H-1,2,4-triazol-3-yl)phenyl)amino)-N-methylpyridazine-3-carboxamide] |
| C (C: ≤20% TYK2 degradation) | C (C: ≤20% TYK2 degradation) | CNC(=O)c1nnc(Nc2ccc(N3CCN(C(=O)CCCCCCC(=O)N[C@H](C(=O)N4C[C@H](O)C[C@H]4C(=O)N[C@H]4CCCc5c4cc(C#N)n5C)C(C)(C)C)CC3)cn2)cc1Nc1cccc(-c2ncn(C)n2)c1OC [CDD-173, 6-((5-(4-(8-(((S)-1-((2S,4R)-2-(((S)-2-cyano-1-methyl-4,5,6,7-tetrahydro-1H-indol-4-yl)carbamoyl)-4-hydroxypyrrolidin-1-yl)-3,3-dimethyl-1-oxobutan-2-yl)amino)-8-oxooctanoyl)piperazin-1-yl)pyridin-2-yl)amino)-4-((2-methoxy-3-(1-methyl-1H-1,2,4-triazol-3-yl)phenyl)amino)-N-methylpyridazine-3-carboxamide] |
| A (A: ≥60% TYK2 degradation) | A (A: ≥60% TYK2 degradation) | CNC(=O)c1nnc(Nc2ccc(N3CCN(C4CCN(C(=O)CCCCCC(=O)N[C@H](C(=O)N5C[C@H](O)C[C@H]5C(=O)N[C@@H](C)c5ccc(-c6scnc6C)cc5)C(C)(C)C)CC4)CC3)cn2)cc1Nc1cccc(-c2ncn(C)n2)c1OC [CPD-148, 6-((5-(4-(1-(7-(((S)-1-((2S,4R)-4-hydroxy-2-(((S)-1-(4-(4-methylthiazol-5-yl)phenyl)ethyl)carbamoyl)pyrrolidin-1-yl)-3,3-dimethyl-1-oxobutan-2-yl)amino)-7-oxoheptanoyl)piperidin-4-yl)piperazin-1-yl)pyridin-2-yl)amino)-4-((2-methoxy-3-(1-methyl-1H-1,2,4-triazol-3-yl)phenyl)amino)-N-methylpyridazine-3-carboxamide] |
|  | C (C: ≤20% TYK2 degradation) | CNC(=O)c1nnc(Nc2ccc(C(=O)NCCCNc3cccc4c3C(=O)N(C3CCC(=O)NC3=O)C4=O)cn2)cc1Nc1cccc(-c2ncn(C)n2)c1OC (stereo not drawn) [CPD-153, 6-((5-((3-((2-(2,6-Dioxopiperidin-3-yl)-1,3-dioxoisoindolin-4-yl)amino)propyl)carbamoyl)pyridin-2-yl)amino)-4-((2-methoxy-3-(1-methyl-1H-1,2,4-triazol-3-yl)phenyl)amino)-N-methylpyridazine-3-carboxamide] |

Source: patent US20240059671A1, “TYROSINE KINASE 2 (TYK2) DEGRADATION COMPOUNDS AND METHODS OF USE” (CULLGEN (SHANGHAI), INC., priority 2020, published 2024)
